Starred links: 1 amine or outer side, 2 acyl side, 3 side chain; linkers in the order of their positions; H or OH if unused. Positions of bridges follow the written chain, without caps; N, C: chain ends. Non-standard residues stand in square brackets, D forms with d. Residues, ends and D or L forms follow the SMILES beside them. Chains are numbered I, II in the order given. Actinocin(1to9) = Cc1c2oc3c(C)ccc(C(=O)[*:2])c3nc-2c(C(=O)[*:1])c(N)c1=O; NMeV = CN[C@H](C(=O)O)C(C)C; Sar = CNCC(=O)O
Tests used:
HeLa [1] = test: Cytotoxicity against human HeLa cells in lag-phase after 48 hrs by MTT assay; type: functional, cell-based
HeLa [2] = test: Cytotoxicity against human HeLa cells in log-phase after 48 hrs by MTT assay; type: functional, cell-based
HEp-2 [3] = test: Cytotoxicity against human Hep2 cells in lag-phase after 48 hrs by MTT assay; type: functional, cell-based; details: HEp-2, 48 h
HEp-2 [4] = test: Cytotoxicity against human Hep2 cells in log-phase after 48 hrs by MTT assay; type: functional, cell-based; details: HEp-2, 48 h
Vero [5] = test: Cytotoxicity against african green monkey Vero cells in lag-phase after 48 hrs by MTT assay; type: cell-based; details: Chlorocebus sabaeus
Vero [6] = test: Cytotoxicity against african green monkey Vero cells in log-phase after 48 hrs by MTT assay; type: cell-based; details: Chlorocebus sabaeus

Row | Compound | IC50 (HeLa [1]) | IC50 (HeLa [2]) | IC50 (HEp-2 [3]) | IC50 (HEp-2 [4]) | IC50 (Vero [5]) | IC50 (Vero [6])
1 | CC(=O)O[C@@H]1C[C@@H](Br)C(C)(C)O[C@]1(C)[C@H]1CC[C@](C)(Cl)[C@@H](Br)C1 | > 42 µM | > 42 µM | > 42 µM | > 42 µM | 31.9 µM | 33.6 µM
2 | C=C1C[C@H](OC(C)=O)[C@H](Br)C(C)(C)[C@]12CC=C(C)CC2 [ACETYLDESCHLOROELATOL] | > 58 µM | > 58 µM | > 58 µM | > 58 µM | > 58 µM | > 58 µM
3 | C=C1C[C@H](OC(C)=O)[C@H](Br)C(C)(C)[C@@]12CCC(C)=C(Cl)C2 [ACETYLELATOL] | 50.3 µM | 13.7 µM | 28 µM | 22.4 µM | > 53 µM | 44.6 µM
4 | CC1(C)O[C@](C)([C@H]2CC[C@](C)(Cl)[C@@H](Br)C2)[C@H](O)C[C@H]1Br [CAESPITOL] | 26.9 µM | 30.6 µM | > 46 µM | > 46 µM | 25.5 µM | 25.8 µM
5 | Cc1c2oc3c(C)ccc(C(=O)N[C@@H]4C(=O)N[C@H](C(C)C)C(=O)N5CCC[C@H]5C(=O)N(C)CC(=O)N(C)[C@@H](C(C)C)C(=O)O[C@@H]4C)c3nc-2c(C(=O)N[C@@H]2C(=O)N[C@H](C(C)C)C(=O)N3CCC[C@H]3C(=O)N(C)CC(=O)N(C)[C@@H](C(C)C)C(=O)O[C@@H]2C)c(N)c1=O [DACTINOMYCIN] (I: T[dV]P[Sar][NMeV] / II: T[dV]P[Sar][NMeV]; ester I:1-I:C, II:1-II:C; linker I:N-II:N via Actinocin(1to9)) | 0.011 µM | 0.001 µM | 0.191 µM | 0.006 µM | 0.071 µM | 0.001 µM
6 | C=C1C[C@H](O)[C@H](Br)C(C)(C)[C@]12CC=C(C)CC2 [DESCHLOROELATOL] | > 67 µM | > 67 µM | > 67 µM | > 67 µM | > 67 µM | > 67 µM
7 | C=C1C[C@H](O)[C@H](Br)C(C)(C)[C@@]12CCC(C)=C(Cl)C2 [ELATOL] | 4.1 µM | 1.3 µM | 2.4 µM | 2 µM | 2.3 µM | 25 µM

Source: ChEMBL document CHEMBL1158836, “Cytotoxic sesquiterpenes from Aplysia dactylomela” (J Nat Prod, 2005)
